27 compounds from ChEMBL document CHEMBL4145541, “Tricyclic pyrazolo[1,5-d][1,4]benzoxazepin-5(6H)-one scaffold derivatives: Synthesis and biological evaluation as selective BuChE inhibitors” (Eur J Med Chem, 2018) can be followed below.

SMILES strings stand for the structures. Activity calls are given as the source filed them. The calls are words filed in the database; no cut-off is given here.

Data set [1] deals with Cholinesterase (Equus caballus) (UniProt P81908). Nature of the data set: Inhibition of equine serum BuChE at 20 uM using butyrylthiocholine iodide as substrate preincubated for 20 mins followed by substrate addition and measured after 20 mins by Ellman's method relative to control.
The target in data set [2] is acetylcholinesterase (AChE) (Electrophorus electricus, UniProt O42275). Nature of the data set: (§1) Inhibition of electric eel AChE at 20 uM using acetylthiocholine iodide as substrate preincubated for 20 mins followed by substrate addition and measured after 20 mins by Ellman's method relative to control. As to conditions: electric eel acetylcholinesterase enzyme, probe acetylthiocholine iodide.

The test system of data set [3] is PC-12. In words: Neuroprotection against H2O2-induced oxidative stress in rat PC12 cells assessed as cell viability at 25 uM preincubated for 3 hrs followed by H2O2 addition and measured after 24 hrs by MTT assay relative to control. As to conditions: read-out: Activity. It counts as functional.
Data set [4] can be described thus: Octanol-water partition coefficient, log P of the compound at pH 7.4 after 24 hrs by shake flask method. The class given is physicochemical.
Data set [5] is described as follows: Cytotoxicity against rat PC12 cells assessed as cell viability up to 50 uM after 24 hrs by MTT assay relative to control.
Data set [6] addresses T1, Cholinesterase (Equus caballus, UniProt P81908). In words: Non-competitive inhibition of equine serum BuChE using varying levels of butyrylthiocholine iodide as substrate preincubated for 20 mins followed by substrate addition and measured after 20 mins by Lineweaver-Burk plot analysis. The note with it: read-out: Ki(app).
In data set [7] the target is Acetylcholinesterase (Electrophorus electricus, UniProt O42275). The description is as §1. As to conditions: 20 min, 20 µM.
The target in data set [8] is T1, Cholinesterase. Nature of the data set: Inhibition of equine serum BuChE using butyrylthiocholine iodide as substrate preincubated for 20 mins followed by substrate addition and measured after 20 mins by Ellman's method.
Data set [9] has as its target T1, Cholinesterase. In words: Mixed-type inhibition of equine serum BuChE using varying levels of butyrylthiocholine iodide as substrate preincubated for 20 mins followed by substrate addition and measured after 20 mins by Lineweaver-Burk plot analysis. The note with it: read-out: Ki(app).

Chain of Acetylcholinesterase (O42275 whole entry): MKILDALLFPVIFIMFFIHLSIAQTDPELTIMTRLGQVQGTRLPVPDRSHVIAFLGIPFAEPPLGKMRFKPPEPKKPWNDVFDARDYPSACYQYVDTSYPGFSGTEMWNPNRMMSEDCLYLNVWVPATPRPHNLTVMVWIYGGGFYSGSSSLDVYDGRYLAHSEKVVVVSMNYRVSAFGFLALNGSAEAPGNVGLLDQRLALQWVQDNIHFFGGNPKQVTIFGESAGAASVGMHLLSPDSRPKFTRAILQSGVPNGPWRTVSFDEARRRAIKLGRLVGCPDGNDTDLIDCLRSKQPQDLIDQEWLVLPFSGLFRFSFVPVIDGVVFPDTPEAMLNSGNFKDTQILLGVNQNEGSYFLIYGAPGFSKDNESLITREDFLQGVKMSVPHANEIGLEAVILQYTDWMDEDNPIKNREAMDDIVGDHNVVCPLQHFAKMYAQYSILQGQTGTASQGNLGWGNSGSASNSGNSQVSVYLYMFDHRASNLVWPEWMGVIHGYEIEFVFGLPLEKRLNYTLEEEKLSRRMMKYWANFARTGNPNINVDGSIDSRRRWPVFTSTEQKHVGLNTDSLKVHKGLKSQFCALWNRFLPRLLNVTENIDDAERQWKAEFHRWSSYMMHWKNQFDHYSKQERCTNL
Chain of acetylcholinesterase (AChE) (O42275 whole entry): as above
T1 sequence (P81908 whole entry): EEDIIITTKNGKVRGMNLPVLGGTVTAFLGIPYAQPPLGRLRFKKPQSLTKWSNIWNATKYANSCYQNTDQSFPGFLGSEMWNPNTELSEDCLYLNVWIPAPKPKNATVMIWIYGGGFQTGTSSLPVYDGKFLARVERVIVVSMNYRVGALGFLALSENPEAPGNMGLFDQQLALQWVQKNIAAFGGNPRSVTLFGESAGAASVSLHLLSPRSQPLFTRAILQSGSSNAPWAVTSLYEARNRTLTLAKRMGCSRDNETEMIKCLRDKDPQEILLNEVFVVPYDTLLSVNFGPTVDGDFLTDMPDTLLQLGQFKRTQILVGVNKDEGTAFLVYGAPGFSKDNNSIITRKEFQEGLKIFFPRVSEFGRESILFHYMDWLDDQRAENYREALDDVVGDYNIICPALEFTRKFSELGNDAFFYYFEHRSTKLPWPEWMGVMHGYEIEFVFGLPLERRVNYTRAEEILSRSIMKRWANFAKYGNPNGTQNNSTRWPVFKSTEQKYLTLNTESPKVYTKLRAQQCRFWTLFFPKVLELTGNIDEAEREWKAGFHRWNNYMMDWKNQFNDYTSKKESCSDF
Chain of Cholinesterase (Equus caballus) (P81908 whole entry): as above

On to `CC1=NN2C(=O)C(C)Oc3ccc(Br)cc3C2C1` (centres undefined), for which the inhibition in data set [1] came to 18%. In addition, the inhibition at 20 min, 20 µM in data set [2] is 23%.
In the case of `CCC1Oc2c(Br)cc(Cl)cc2C2CC(C)=NN2C1=O` (centres undefined), in data set [3], the viability at 25 µM turned out to be 70%. Also, the logD at 24 h in [4] is 1.57. Further, the viability at 24 h in data set [5] (PC12 cells) was over 90%. Further, the Ki in data set [6] was found to be 1.5 µM. Further, the “inhibition (INH)” value in data set [7] is given as “Not Active”. Further, the midpoint of inhibition in data set [8], the IC50, lay at 2.04 µM.
Regarding `COc1cccc2c1OC(C)C(=O)N1N=C(C)CC21` (centres undefined), the inhibition entry in [1] was “inactive”. Moreover, the inhibition at 20 min, 20 µM in data set [2] came to 24%.
Compound `COc1cccc2c1OCC(=O)N1N=C(C)CC21` (centres undefined) came in with an inhibition in [1] of 2%. The compound also yielded an inhibition at 20 min, 20 µM in data set [2] of 34%.
For `COc1cc2c(cc1OC)C(=O)C(CC1CCN(Cc3ccccc3)CC1)C2` (centres undefined) [DONEPEZIL], in data set [5] (pc-12), the viability at 24 h is over 90%.
The compound `CCC1Oc2ccc(Cl)cc2C2CC(C)=NN2C1=O` (centres undefined) gave a logD at 24 h in [4] of 1.05. In data set [7], the “inhibition (INH)” value was “Not Active”. The same compound displayed a concentration for half-maximal inhibition (IC50) in [8] of 12.8 µM.
Compound `CC1=NN2C(=O)COc3c(Br)cc(Br)cc3C2C1` (centres undefined) had an inhibition in data set [1] of 24%. The “inhibition (INH)” value in data set [7] was “Not Active”.
Consider `CC[C@@H]1Oc2c(Br)cc(Cl)cc2C2CC(C)=NN2C1=O` (some centres undefined), for which the “inhibition (INH)” value in data set [7] was “Not Active”. Further, the IC50 in data set [8] came out at 20.4 µM.
`CC1=NN2C(=O)C(C)Oc3c(Cl)cc(Cl)cc3C2C1` (centres undefined) came in with a log distribution coefficient (logD) at 24 h in data set [4] of 2.49. The same compound returned an inhibition at 20 min, 20 µM in data set [2] of 22%. The compound also showed a 50% inhibitory concentration (IC50) in data set [8] of 5.95 µM.
In data set [1], `CC1=NN2C(=O)COc3c(Cl)cc(Cl)cc3C2C1` (centres undefined) yielded an inhibition of 31%. This compound also gave an inhibition at 20 min, 20 µM in data set [2] of 25%.
Take `O=C1COc2ccc(Br)cc2C2CC(c3ccco3)=NN12` (centres undefined): the inhibition in [1] stood at 20%. This compound showed an inhibition at 20 min, 20 µM in data set [2] of 25%.
With `CCC1Oc2c(Cl)cc(Cl)cc2C2CC(C)=NN2C1=O` (centres undefined), in data set [4], the logD at 24 h was 1.12. The inhibition at 20 min, 20 µM in data set [2] was 26%. Moreover, the 50% inhibitory concentration (IC50) in data set [8] came out at 4.67 µM.
As for `CC1=NN2C(=O)COc3ccc(C)cc3C2C1` (centres undefined), the inhibition result in data set [1] was “inactive”. Also, in data set [2], the inhibition at 20 min, 20 µM was 24%.
In data set [1], `CC1=NN2C(=O)C(C)Oc3c(Br)cc(Br)cc3C2C1` (centres undefined) gave an inhibition of 11%. The “inhibition (INH)” value in [7] was “Not Active”.
With `CC1Oc2ccc(Br)cc2C2CC(c3ccc(F)cc3)=NN2C1=O` (centres undefined), the inhibition in data set [1] is 45%. In data set [7], the “inhibition (INH)” value was “Not Active”.
In data set [1], `CC1=NN2C(=O)C(C)Oc3ccc(Cl)cc3C2C1` (centres undefined) gave an inhibition of 39%. Besides, the “inhibition (INH)” value in [7] is listed as “Not Active”.
In the case of `CCC1Oc2c(Br)cc(Br)cc2C2CC(C)=NN2C1=O` (centres undefined), the logD at 24 h in [4] was found to be 1.08. For the same compound, the Ki in data set [9] came to 7.6 µM. Further, in data set [2], the inhibition at 20 min, 20 µM amounted to 41%. In [8], 2.92 µM corresponded to half-maximal inhibition (IC50).
Compound `CC1=NN2C(=O)COc3c(Br)cc(Cl)cc3C2C1` (centres undefined) displayed an inhibition in data set [1] of 18%. This compound also came in with an inhibition at 20 min, 20 µM in [2] of 32%.
As to `CC1Oc2ccc(Cl)cc2C2CC(c3ccc(F)cc3)=NN2C1=O` (centres undefined), in data set [1], the inhibition worked out at 17%. Further, the “inhibition (INH)” value in data set [7] is “Not Active”.
`CCC1Oc2ccc(Br)cc2C2CC(C)=NN2C1=O` (centres undefined): in [4], the logD at 24 h turned out to be 1.11. In data set [1], the inhibition stood at 39%. Further, the “inhibition (INH)” value in data set [7] is “Not Active”.
In data set [1], `CC1=NN2C(=O)C(C)Oc3ccc(C)cc3C2C1` (centres undefined) came in with an inhibition of 1%. In [2], this compound came in with an inhibition at 20 min, 20 µM of 22%.
Regarding `CC1=NN2C(=O)COc3ccc(Br)cc3C2C1` (centres undefined), the inhibition entry in data set [1] is “inactive”. Also, the inhibition at 20 min, 20 µM in data set [2] came out at 29%.
In data set [4], `CC1=NN2C(=O)C(C)Oc3c(Br)cc(Cl)cc3C2C1` (centres undefined) displayed a logD at 24 h of 2.18. The “inhibition (INH)” value in [7] was “Not Active”. This compound also showed a concentration for half-maximal inhibition (IC50) in data set [8] of 11.1 µM.
As for `CC[C@H]1Oc2c(Br)cc(Cl)cc2C2CC(C)=NN2C1=O` (some centres undefined), the “inhibition (INH)” value in data set [7] is reported as “Not Active”. Further, the 50% inhibitory concentration (IC50) in [8] worked out at 1.14 µM.
`CC1Oc2c(Cl)cc(Cl)cc2C2CC(c3ccco3)=NN2C1=O` (centres undefined): the inhibition in data set [1] is 23%. The inhibition at 20 min, 20 µM in [2] worked out at 28%.
For `CC1=NN2C(=O)COc3ccc(Cl)cc3C2C1` (centres undefined), the inhibition result in [1] was “inactive”. The inhibition at 20 min, 20 µM in data set [2] amounted to 2%.
As to `CC1Oc2c(Br)cc(Br)cc2C2CC(c3ccc(F)cc3)=NN2C1=O` (centres undefined), the inhibition result in data set [1] is “inactive”. In data set [7], the “inhibition (INH)” value was “Not Active”.
